A short description of data set [1]: Metabolic stability in human hepatic microsome. It is filed as in vitro ADME. Particulars: microsomes.
The nature of data set [2]: PAMPA (parallel artificial membrane permeability assay). The class given is in vitro ADME. To be noted: PAMPA. Summed up:
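Artificial membrane was 10% (w/v) egg lecithin plus 0.5% (w/v) cholesterol in dodecane on a PVDF filter. A 10 mM DMSO stock was added at 0.5% (v/v) to donor buffer (50 mM MOPSO, pH 6.5, 5.0% glycocholic acid). After 18 h at 37 °C, LC/MS or LC/UV gave donor and acceptor levels for Pe.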
(In PAMPA a lipid-coated filter parts donor from acceptor wells.)

[3] abbreviates: pH 7.4, human hepatic microsome, NADPH(+), read-out: CL NADPH(+).
Where [4] appears, read: membrane permeation rate (Pe), 50 mM MOPSO buffer pH 6.5 with 5.0% glycocholic acid, 37° C., 18 hours, read-out: iPAMPA Pe.

SMILES strings stand for the structures. Where two headings read alike, the source gives them in different places. Starred links: 1 amine or outer side, 2 acyl side, 3 side chain; linkers in the order of their positions; H or OH if unused. Positions of bridges follow the written chain, without caps; N, C: chain ends. Non-standard residues stand in square brackets, D forms with d. Residues, ends and D or L forms follow the SMILES beside them. *: point of attachment. NMeF = CN[C@@H](Cc1ccccc1)C(=O)O; NMeGABA = CN(CCCC(=O)[*:2])[*:1]; NMeβAla = CN(CCC(=O)[*:2])[*:1]; NMeL = CN[C@@H](CC(C)C)C(=O)O; NMeV = CN[C@H](C(=O)O)C(C)C; NMeA = CN[C@@H](C)C(=O)O; Piperidide = C1CCN(*)CC1; dNMeA = CN[C@H](C)C(=O)O; Sar = CNCC(=O)O

As to `CC[C@H](C)[C@@H]1NC(=O)[C@H](C)NC(=O)C[C@@H](C(=O)N(C)[C@@H](Cc2ccccc2)C(=O)N(C)[C@@H](Cc2ccccc2)C(=O)N[C@@H](C)C(=O)N2CCCCC2)NC(=O)[C@H](C)NC(=O)[C@H](C)N(C)C(=O)[C@H](CC(C)C)N(C)C(=O)CN(C)C(=O)[C@H]([C@@H](C)O)NC(=O)[C@H](C(C)C)N(C)C(=O)[C@H](Cc2ccccc2)N(C)C1=O` [DP-389] (AI[NMeF][NMeV]T[Sar][NMeL][NMeA]AD[NMeF][NMeF]A-Piperidide; lactam N-10), the microsomal CLint at 1 uM in data set [1] (setting [3]) is 14 µL/min/mg. Also, the Papp at 18 hours, 50 µM in data set [2] (setting [4]) was found to be 15 ×10⁻⁶ cm/s.
For `CC(C)C[C@H]1C(=O)NCC(=O)N(C)[C@@H](C(C)C)C(=O)N[C@@H]([C@@H](C)O)C(=O)N[C@@H](Cc2ccccc2)C(=O)N[C@H](C(=O)N(C)[C@@H](Cc2ccccc2)C(=O)N(C)[C@@H](Cc2ccccc2)C(=O)N[C@@H](C)C(=O)N2CCCCC2)CC(=O)N(C)CCC(=O)N(C)[C@@H](C(C)C)C(=O)N[C@@H](C(C)C)C(=O)N(C)[C@@H](Cc2ccccc2)C(=O)N1C` [DP-390] ([NMeβAla][NMeV]V[NMeF][NMeL]G[NMeV]TFD[NMeF][NMeF]A-Piperidide; lactam N-10) the same measures were 52 µL/min/mg and 3.5 ×10⁻⁶ cm/s.
The corresponding values for `CC(C)C[C@H]1C(=O)N[C@H](C(=O)N(C)[C@@H](Cc2ccccc2)C(=O)N(C)[C@@H](Cc2ccccc2)C(=O)N[C@@H](C)C(=O)N2CCCCC2)CC(=O)N(C)CCC(=O)N[C@@H](C)C(=O)N(C)[C@@H](Cc2ccccc2)C(=O)N(C)[C@@H](C(C)C)C(=O)NCC(=O)N[C@@H]([C@@H](C)O)C(=O)N(C)[C@@H](C)C(=O)N[C@@H](C(C)C)C(=O)N1C` [DP-391] ([NMeβAla]A[NMeF][NMeV]GT[NMeA]V[NMeL]D[NMeF][NMeF]A-Piperidide; lactam N-10) are 14 µL/min/mg and 4.5 ×10⁻⁶ cm/s.
The corresponding values for `CC[C@H](C)[C@@H]1NC(=O)CCCN(C)C(=O)C[C@@H](C(=O)N(C)[C@@H](Cc2ccccc2)C(=O)N(C)[C@@H](Cc2ccccc2)C(=O)N[C@@H](C)C(=O)N2CCCCC2)NC(=O)[C@H](C(C)C)N(C)C(=O)[C@H](CC(C)C)N(C)C(=O)[C@H](C)NC(=O)CN(C)C(=O)[C@H]([C@@H](C)O)NC(=O)[C@H](Cc2ccccc2)N(C)C(=O)[C@H](C)N(C)C1=O` [DP-392] ([NMeGABA]I[NMeA][NMeF]T[Sar]A[NMeL][NMeV]D[NMeF][NMeF]A-Piperidide; lactam N-10) are 18 µL/min/mg and 20 ×10⁻⁶ cm/s.
For the compound `CC[C@H](C)[C@@H]1NC(=O)[C@H](CC(C)C)N(C)C(=O)[C@H](Cc2ccccc2)NC(=O)[C@H](C)N(C)C(=O)C[C@@H](C(=O)N(C)[C@@H](Cc2ccccc2)C(=O)N(C)[C@@H](Cc2ccccc2)C(=O)N[C@@H](C)C(=O)N2CCCCC2)NC(=O)[C@H](C(C)C)N(C)C(=O)[C@H](C)N(C)C(=O)[C@H](C)N(C)C(=O)[C@H]([C@@H](C)O)NC(=O)CN(C)C1=O` [DP-394] ([NMeA]F[NMeL]I[Sar]T[NMeA][NMeA][NMeV]D[NMeF][NMeF]A-Piperidide; lactam N-10), in data set [1] (setting [3]), the microsomal CLint at 1 uM is 10 µL/min/mg. Moreover, the Papp at 18 hours, 50 µM in data set [2] (setting [4]) turned out to be 22 ×10⁻⁶ cm/s.
For `CC[C@H](C)[C@@H]1NC(=O)[C@H](C)N(C)C(=O)[C@H](Cc2ccccc2)N(C)C(=O)[C@H](C)N(C)C(=O)C[C@@H](C(=O)N(C)[C@@H](Cc2ccccc2)C(=O)N(C)[C@@H](Cc2ccccc2)C(=O)N[C@@H](C)C(=O)N2CCCCC2)NC(=O)[C@H](C)N(C)C(=O)[C@H](CC(C)C)N(C)C(=O)[C@H](C)N(C)C(=O)[C@H]([C@@H](C)O)NC(=O)[C@H](C)N(C)C1=O` [DP-395] ([NMeA][NMeF][NMeA]I[NMeA]T[NMeA][NMeL][NMeA]D[NMeF][NMeF]A-Piperidide; lactam N-10) the same measures were 23 µL/min/mg and 19 ×10⁻⁶ cm/s.
`CC(C)C[C@H]1C(=O)NCC(=O)N[C@H](C(=O)N(C)[C@@H](Cc2ccccc2)C(=O)N(C)[C@@H](Cc2ccccc2)C(=O)N[C@@H](C)C(=O)N2CCCCC2)CC(=O)N[C@@H](C)C(=O)N[C@@H]([C@@H](C)O)C(=O)N(C)[C@@H](C)C(=O)N(C)[C@@H](Cc2ccccc2)C(=O)N[C@@H](C(C)C)C(=O)N(C)[C@@H](Cc2ccccc2)C(=O)N1C` [DP-396] (AT[NMeA][NMeF]V[NMeF][NMeL]GD[NMeF][NMeF]A-Piperidide; lactam N-9) gave a microsomal CLint at 1 uM in data set [1] (human, pH 7.4, CL NADPH(+)) of 141 µL/min/mg. The same compound displayed a Papp at 18 hours, 50 µM in data set [2] (pH 6.5) of 55 ×10⁻⁶ cm/s.
For `CC(C)C[C@H]1C(=O)N[C@@H](C(C)C)C(=O)N(C)[C@@H](Cc2ccccc2)C(=O)N(C)[C@@H](CC(C)C)C(=O)N(C)[C@@H](CC(C)C)C(=O)N[C@H](C(=O)N(C)[C@@H](Cc2ccccc2)C(=O)N(C)[C@@H](Cc2ccccc2)C(=O)N[C@@H](C)C(=O)N2CCCCC2)CC(=O)N(C)CCC(=O)N[C@@H]([C@@H](C)O)C(=O)N(C)[C@@H](C)C(=O)N1C` [DP-397] ([NMeβAla]T[NMeA][NMeL]V[NMeF][NMeL][NMeL]D[NMeF][NMeF]A-Piperidide; lactam N-9) the same measures were 92 µL/min/mg and 11 ×10⁻⁶ cm/s.
Regarding `CC(C)C[C@H]1C(=O)N(C)[C@@H](CC(C)C)C(=O)N[C@@H]([C@@H](C)O)C(=O)N(C)[C@@H](C)C(=O)N[C@H](C(=O)N(C)[C@@H](Cc2ccccc2)C(=O)N(C)[C@@H](Cc2ccccc2)C(=O)N[C@@H](C)C(=O)N2CCCCC2)CC(=O)N(C)CCC(=O)N(C)CC(=O)N(C)[C@@H](Cc2ccccc2)C(=O)N[C@@H](C)C(=O)N1C` [DP-398] ([NMeβAla][Sar][NMeF]A[NMeL][NMeL]T[NMeA]D[NMeF][NMeF]A-Piperidide; lactam N-9), the microsomal CLint at 1 uM in data set [1] (setting [3]) came out at 123 µL/min/mg. The Papp at 18 hours, 50 µM in data set [2] (setting [4]) was determined as 24 ×10⁻⁶ cm/s.
For `CC(C)C[C@H]1C(=O)N[C@@H](C(C)C)C(=O)N(C)[C@@H](C)C(=O)N(C)[C@@H](C)C(=O)N[C@@H]([C@@H](C)O)C(=O)N(C)[C@@H](C)C(=O)N[C@H](C(=O)N(C)[C@@H](Cc2ccccc2)C(=O)N(C)[C@@H](Cc2ccccc2)C(=O)N[C@@H](C)C(=O)N2CCCCC2)CC(=O)N(C)[C@H](C)C(=O)N(C)[C@@H](Cc2ccccc2)C(=O)N1C` [DP-400] ([dNMeA][NMeF][NMeL]V[NMeA][NMeA]T[NMeA]D[NMeF][NMeF]A-Piperidide; lactam N-9) the same measures were 24 µL/min/mg and 15 ×10⁻⁶ cm/s.
On to `CC(C)C[C@H]1C(=O)NCC(=O)N[C@H](C(=O)N(C)[C@@H](Cc2ccccc2)C(=O)N(C)[C@@H](Cc2ccccc2)C(=O)N[C@@H](C)C(=O)N2CCCCC2)CC(=O)N[C@H](C(C)C)C(=O)N[C@@H]([C@@H](C)O)C(=O)N(C)[C@@H](C)C(=O)N(C)[C@@H](Cc2ccccc2)C(=O)N[C@@H](C(C)C)C(=O)N(C)[C@@H](Cc2ccccc2)C(=O)N1C` [DP-401] ([dV]T[NMeA][NMeF]V[NMeF][NMeL]GD[NMeF][NMeF]A-Piperidide; lactam N-9), for which the microsomal CLint at 1 uM in data set [1] (human, pH 7.4, CL NADPH(+)) turned out to be 145 µL/min/mg. The compound also came in with a Papp at 18 hours, 50 µM in data set [2] (pH 6.5) of 8.6 ×10⁻⁶ cm/s.
The corresponding values for `CC(C)C[C@H]1C(=O)NCC(=O)N(C)[C@@H](Cc2ccccc2)C(=O)N(C)[C@@H](Cc2ccccc2)C(=O)N[C@@H]([C@@H](C)O)C(=O)N(C)[C@@H](C)C(=O)N[C@H](C(=O)N(C)[C@@H](Cc2ccccc2)C(=O)N(C)[C@@H](Cc2ccccc2)C(=O)N[C@@H](C)C(=O)N2CCCCC2)CC(=O)N(C)CCCC(=O)N[C@@H](C(C)C)C(=O)N1C` [DP-402] ([NMeGABA]V[NMeL]G[NMeF][NMeF]T[NMeA]D[NMeF][NMeF]A-Piperidide; lactam N-9) are 185 µL/min/mg and 24 ×10⁻⁶ cm/s.
For the compound `CC(C)C[C@H]1C(=O)N(C)[C@@H](C)C(=O)N(C)[C@@H](CC(C)C)C(=O)N[C@H](C(=O)N(C)[C@@H](Cc2ccccc2)C(=O)N(C)[C@@H](Cc2ccccc2)C(=O)N[C@@H](C)C(=O)N2CCCCC2)CC(=O)N(C)CCCC(=O)N[C@@H]([C@@H](C)O)C(=O)N(C)[C@@H](Cc2ccccc2)C(=O)N(C)[C@@H](CC(C)C)C(=O)N[C@@H](C(C)C)C(=O)N1C` [DP-403] ([NMeGABA]T[NMeF][NMeL]V[NMeL][NMeA][NMeL]D[NMeF][NMeF]A-Piperidide; lactam N-9), the microsomal CLint at 1 uM in data set [1] (setting [3]) was 57 µL/min/mg. Further, in data set [2] (setting [4]), the Papp at 18 hours, 50 µM came out at 18 ×10⁻⁶ cm/s.
For `CC(C)C[C@H]1C(=O)N[C@@H]([C@@H](C)O)C(=O)N[C@H](C(=O)N(C)[C@@H](Cc2ccccc2)C(=O)N(C)[C@@H](Cc2ccccc2)C(=O)N[C@@H](C)C(=O)N2CCCCC2)CC(=O)N(C)CCCC(=O)N(C)[C@@H](C)C(=O)N(C)[C@@H](Cc2ccccc2)C(=O)N[C@@H](C(C)C)C(=O)N(C)[C@@H](CC(C)C)C(=O)N(C)CC(=O)N1C` [DP-404] ([NMeGABA][NMeA][NMeF]V[NMeL][Sar][NMeL]TD[NMeF][NMeF]A-Piperidide; lactam N-9) the same measures were 107 µL/min/mg and 20 ×10⁻⁶ cm/s.
The corresponding values for `CC(C)C[C@H]1C(=O)N[C@@H]([C@@H](C)O)C(=O)N(C)[C@@H](C)C(=O)N(C)[C@@H](CC(C)C)C(=O)N[C@@H](C(C)C)C(=O)N[C@H](C(=O)N(C)[C@@H](Cc2ccccc2)C(=O)N(C)[C@@H](Cc2ccccc2)C(=O)N[C@@H](C)C(=O)N2CCCCC2)CC(=O)N(C)[C@@H](C)C(=O)N(C)[C@@H](Cc2ccccc2)C(=O)N(C)CC(=O)N1C` [DP-405] ([NMeA][NMeF][Sar][NMeL]T[NMeA][NMeL]VD[NMeF][NMeF]A-Piperidide; lactam N-9) are 83 µL/min/mg and 26 ×10⁻⁶ cm/s.
For `CC(C)C[C@H]1C(=O)N[C@@H]([C@@H](C)O)C(=O)N[C@H](C(=O)N(C)[C@@H](Cc2ccccc2)C(=O)N(C)[C@@H](Cc2ccccc2)C(=O)N[C@@H](C)C(=O)N2CCCCC2)CC(=O)N(C)[C@@H](C)C(=O)N(C)CC(=O)N(C)[C@@H](Cc2ccccc2)C(=O)N(C)[C@@H](C)C(=O)N[C@@H](C)C(=O)N(C)[C@@H](C)C(=O)N1C` [DP-406] ([NMeA][Sar][NMeF][NMeA]A[NMeA][NMeL]TD[NMeF][NMeF]A-Piperidide; lactam N-9) the same measures were 11 µL/min/mg and 4.4 ×10⁻⁶ cm/s.
